Measured values published in ChEMBL document CHEMBL1221363, “Cytotoxicity of new pyrazino[1,2-b]isoquinoline and 6,15-iminoisoquino[3,2-b]3-benzazocine compounds” (2010).

Assays:
Format in all cases: functional
MDA-MB-231 = assay: Cytotoxicity against human MDA-MB-231 cells after 48 hrs by SRB assay; conditions: MDA-MB-231, 48 h; for CC50: read-out: LC50 (the source's name)
A549 = assay: Cytotoxicity against human A549 cells after 48 hrs by SRB assay; conditions: A549, 48 h
HT-29 = assay: Cytotoxicity against human HT-29 cells after 48 hrs by SRB assay; conditions: HT-29, 48 h

COc1c(C)c(OC)c(OC)c2c1C[C@H]1[C@@H](OC)N(C(=O)OC(C)C)CC(=O)N1[C@H]2COCc1ccccc1
GI50 (MDA-MB-231): 12.3 µM
TGI (MDA-MB-231): > 18.4 µM
CC50 (MDA-MB-231): > 18.4 µM
GI50 (A549): 11.2 µM
LC50 (concentration causing 50% net cell kill) (A549): > 18.4 µM
TGI (A549): > 18.4 µM
GI50 (HT-29): 0.195 µM
LC50 (HT-29): 0.527 µM
TGI (HT-29): 0.273 µM

COc1c(C)c(OC)c(OC)c2c1C[C@H]1CN(C(=O)OC(C)(C)C)CC(=O)N1[C@H]2COCc1ccccc1
GI50 (MDA-MB-231): 14.1 µM
TGI (MDA-MB-231): > 19 µM
CC50 (MDA-MB-231): > 19 µM
GI50 (A549): 8.82 µM
LC50 (concentration causing 50% net cell kill) (A549): > 19 µM
TGI (A549): > 19 µM
GI50 (HT-29): 8.66 µM
LC50 (HT-29): > 18.4 µM
TGI (HT-29): > 18.4 µM

COc1c(C)c(OC)c(OC)c2c1C[C@H]1CN(C(=O)OC(C)C)[C@@H](Cc3ccccc3)C(=O)N1[C@H]2COCc1ccccc1
GI50 (MDA-MB-231): > 16.6 µM
TGI (MDA-MB-231): > 16.6 µM
CC50 (MDA-MB-231): > 16.6 µM
GI50 (A549): > 16.6 µM
LC50 (concentration causing 50% net cell kill) (A549): > 16.6 µM
TGI (A549): > 16.6 µM
GI50 (HT-29): 16.3 µM
LC50 (HT-29): > 16.3 µM
TGI (HT-29): > 16.3 µM

COc1c(C)c(OC)c(OC)c2c1C[C@H]1CN(C(=O)OC(C)(C)C)[C@@H](Cc3ccccc3)C(=O)N1[C@H]2COCc1ccccc1
GI50 (MDA-MB-231): 7.13 µM
TGI (MDA-MB-231): 10.5 µM
CC50 (MDA-MB-231): > 16.2 µM
GI50 (A549): 7.3 µM
LC50 (concentration causing 50% net cell kill) (A549): > 16.2 µM
TGI (A549): > 16.2 µM
GI50 (HT-29): 9.13 µM
LC50 (HT-29): > 16.6 µM
TGI (HT-29): > 16.6 µM

COc1c(C)c(OC)c(OC)c2c1C[C@H]1CN(C)[C@@H](Cc3ccccc3)C(=O)N1[C@H]2COCc1ccccc1
GI50 (MDA-MB-231): > 18.8 µM
TGI (MDA-MB-231): > 18.8 µM
CC50 (MDA-MB-231): > 18.8 µM
GI50 (A549): 12.2 µM
LC50 (concentration causing 50% net cell kill) (A549): > 18.8 µM
TGI (A549): > 18.8 µM
GI50 (HT-29): 13 µM
LC50 (HT-29): > 16.2 µM
TGI (HT-29): > 16.2 µM

COc1c(C)c(OC)c(OC)c2c1C[C@H]1[C@@H](OC)N(C(=O)OC(C)C)[C@@H](Cc3ccccc3)C(=O)N1[C@H]2COCc1ccccc1
GI50 (MDA-MB-231): 12.2 µM
TGI (MDA-MB-231): > 15.8 µM
CC50 (MDA-MB-231): > 15.8 µM
GI50 (A549): 11.1 µM
LC50 (concentration causing 50% net cell kill) (A549): > 15.8 µM
TGI (A549): > 15.8 µM
GI50 (HT-29): 11.3 µM
LC50 (HT-29): > 18.8 µM
TGI (HT-29): > 18.8 µM

COc1ccc(C[C@H]2C(=O)N3[C@@H](COCc4ccccc4)c4c(c(OC)c(C)c(OC)c4OC)C[C@H]3[C@@H](OC)N2C(=O)OC(C)C)cc1OC
GI50 (MDA-MB-231): 9.53 µM
TGI (MDA-MB-231): > 14.4 µM
CC50 (MDA-MB-231): > 14.4 µM
GI50 (A549): 6.21 µM
LC50 (concentration causing 50% net cell kill) (A549): > 14.4 µM
TGI (A549): > 14.4 µM
GI50 (HT-29): 12.3 µM
LC50 (HT-29): > 15.8 µM
TGI (HT-29): > 15.8 µM

COc1ccc(C[C@H]2C(=O)N3[C@@H](COCc4ccccc4)c4c(c(OC)c(C)c(OC)c4OC)C[C@H]3[C@@H](OC)N2C(=O)OC(C)(C)C)cc1OC
GI50 (MDA-MB-231): > 14.1 µM
TGI (MDA-MB-231): > 14.1 µM
CC50 (MDA-MB-231): > 14.1 µM
GI50 (A549): 9.2 µM
LC50 (concentration causing 50% net cell kill) (A549): > 14.1 µM
TGI (A549): > 14.1 µM
GI50 (HT-29): 9.38 µM
LC50 (HT-29): > 14.4 µM
TGI (HT-29): > 14.4 µM

COc1cc(C[C@@H]2NCC3=Cc4c(OC)c(C)c(OC)c(OC)c4[C@H](COC(=O)c4cccc5ccccc45)N3C2=O)c(OC)c(C)c1OC
GI50 (MDA-MB-231): 8.79 µM
TGI (MDA-MB-231): > 14.6 µM
CC50 (MDA-MB-231): > 14.6 µM
GI50 (A549): 2.78 µM
LC50 (concentration causing 50% net cell kill) (A549): > 14.6 µM
TGI (A549): > 14.6 µM
GI50 (HT-29): 7.64 µM
LC50 (HT-29): > 14.1 µM
TGI (HT-29): > 14.1 µM

COc1cc(C[C@H]2NC=C3Cc4c(OC)c(C)c(OC)c(OC)c4[C@H](COC(=O)/C=C/c4ccccc4)N3C2=O)c(OC)c(C)c1OC
GI50 (MDA-MB-231): 10.6 µM
TGI (MDA-MB-231): > 15.2 µM
CC50 (MDA-MB-231): > 15.2 µM
GI50 (A549): 6.53 µM
LC50 (concentration causing 50% net cell kill) (A549): > 15.2 µM
TGI (A549): > 15.2 µM
GI50 (HT-29): 11.1 µM
LC50 (HT-29): > 14.6 µM
TGI (HT-29): > 14.6 µM

COc1c(C)c(OC)c(OC)c2c1C[C@H]1[C@H]3c4ccccc4C[C@@H](C(=O)N1[C@H]2COCc1ccccc1)N3C(=O)OC(C)C
GI50 (MDA-MB-231): 8.32 µM
TGI (MDA-MB-231): > 16.6 µM
CC50 (MDA-MB-231): > 16.6 µM
GI50 (A549): > 16.6 µM
LC50 (concentration causing 50% net cell kill) (A549): > 16.6 µM
TGI (A549): > 16.6 µM
GI50 (HT-29): 12.3 µM
LC50 (HT-29): > 15.2 µM
TGI (HT-29): > 15.2 µM

COc1c(C)c(OC)c(OC)c2c1C[C@H]1[C@H]3c4ccccc4C[C@@H](C(=O)N1[C@H]2CO)N3C(=O)OC(C)C
GI50 (MDA-MB-231): 17.6 µM
TGI (MDA-MB-231): > 19.6 µM
CC50 (MDA-MB-231): > 19.6 µM
GI50 (A549): > 19.6 µM
LC50 (concentration causing 50% net cell kill) (A549): > 19.6 µM
TGI (A549): > 19.6 µM
GI50 (HT-29): 14 µM
LC50 (HT-29): > 16.6 µM
TGI (HT-29): > 16.6 µM

COc1c(C)c(OC)c(OC)c2c1C[C@H]1N[C@@H]2[C@@H]2Cc3c(OC)c(C)c(OC)c(OC)c3[C@H](COC(=O)c3cccc4ccccc34)N2C1=O
GI50 (MDA-MB-231): 10.3 µM
TGI (MDA-MB-231): > 14.6 µM
CC50 (MDA-MB-231): > 14.6 µM
GI50 (A549): 7.32 µM
LC50 (concentration causing 50% net cell kill) (A549): > 14.6 µM
TGI (A549): > 14.6 µM
GI50 (HT-29): 6.67 µM
LC50 (HT-29): > 18 µM
TGI (HT-29): > 18 µM

COc1c(C)c(OC)c(OC)c2c1C[C@H]1CN(C(=O)OC(C)C)CC(=O)N1[C@H]2COCc1ccccc1
GI50 (HT-29): 8.32 µM
TGI (HT-29): 9.84 µM

COc1c(C)c(OC)c(OC)c2c1C[C@H]1[C@@H](O)N(C(=O)OC(C)C)CC(=O)N1[C@H]2COCc1ccccc1
LC50 (HT-29): > 1.31 µM

CCCN1CC(=O)N2[C@@H](Cc3c(OC)c(C)c(OC)c(OC)c3[C@@H]2COCc2ccccc2)C1 (relative stereo)
GI50 (MDA-MB-231): 16.6 µM
TGI (MDA-MB-231): > 21.3 µM
CC50 (MDA-MB-231): > 21.3 µM
GI50 (A549): 10 µM
LC50 (concentration causing 50% net cell kill) (A549): > 21.3 µM
TGI (A549): > 21.3 µM
GI50 (HT-29): 11.2 µM
LC50 (HT-29): > 19 µM
TGI (HT-29): > 19 µM

COc1c(C)c(OC)c(OC)c2c1C[C@H]1CN(Cc3ccccc3)CC(=O)N1[C@H]2COCc1ccccc1 (relative stereo)
GI50 (MDA-MB-231): 11.2 µM
TGI (MDA-MB-231): > 19.4 µM
CC50 (MDA-MB-231): > 19.4 µM
GI50 (A549): 7.16 µM
LC50 (concentration causing 50% net cell kill) (A549): > 19.4 µM
TGI (A549): 16.1 µM
GI50 (HT-29): 12 µM
LC50 (HT-29): > 21.3 µM
TGI (HT-29): > 21.3 µM

COc1c(C)c(OC)c(OC)c2c1C[C@@H]1N[C@H]2[C@@H]2Cc3c(OC)c(C)c(OC)c(OC)c3[C@H](CO)N2C1=O (relative stereo)
GI50 (MDA-MB-231): 16.1 µM
TGI (MDA-MB-231): > 18.9 µM
CC50 (MDA-MB-231): > 18.9 µM
GI50 (A549): > 18.9 µM
LC50 (concentration causing 50% net cell kill) (A549): > 18.9 µM
TGI (A549): > 18.9 µM
GI50 (HT-29): 12.3 µM
LC50 (HT-29): > 15.1 µM
TGI (HT-29): > 15.1 µM

COc1c(C)c(OC)c(OC)c2c1C[C@H]1[C@@H]3N[C@@H](Cc4ccccc43)C(=O)N1[C@H]2COC(=O)/C=C/c1ccccc1 (relative stereo)
GI50 (MDA-MB-231): 15 µM
TGI (MDA-MB-231): > 18 µM
CC50 (MDA-MB-231): > 18 µM
GI50 (A549): 1.05 µM
LC50 (concentration causing 50% net cell kill) (A549): > 18 µM
TGI (A549): > 18 µM
GI50 (HT-29): 6.22 µM
LC50 (HT-29): > 17.3 µM
TGI (HT-29): > 17.3 µM

COc1c(C)c(OC)c(OC)c2c1C[C@H]1[C@H](C#N)N3[C@@H](CO)c4c(c(OC)c(C)c(OC)c4OC)C[C@H]3[C@@H]2N1C (relative stereo)
GI50 (MDA-MB-231): 4.7 µM
TGI (MDA-MB-231): 9.03 µM
CC50 (MDA-MB-231): 14.1 µM
GI50 (A549): 3.43 µM
LC50 (concentration causing 50% net cell kill) (A549): 13.2 µM
TGI (A549): 8.13 µM
GI50 (HT-29): 7.12 µM
LC50 (HT-29): 15.1 µM
TGI (HT-29): 10.5 µM

COc1c(C)c(OC)c(OC)c2c1C[C@H]1[C@H]3c4ccccc4C[C@@H]([C@H](C#N)N1[C@H]2COC(=O)/C=C/c1cccc(C(F)(F)F)c1)N3C (relative stereo)
GI50 (MDA-MB-231): 2.47 µM
TGI (MDA-MB-231): 2.62 µM
CC50 (MDA-MB-231): 2.78 µM
GI50 (A549): 2.32 µM
LC50 (concentration causing 50% net cell kill) (A549): 3.86 µM
TGI (A549): 2.93 µM
GI50 (HT-29): 3.25 µM
LC50 (HT-29): 6.5 µM
TGI (HT-29): 4.52 µM
